# Assay results as given in patent US7671056B2, “Piperazine-piperidine antagonists and agonists of the 5-HT1A receptor” (Wyeth LLC, priority 2005, dated 2010).
# How the values were obtained:
# [1] = tested on: sexually experienced male rats (Sprague-Dawley rats); assay: Animal model of SSRI-induced sexual dysfunction (non-contact penile erections); assay type: in vivo, rat
# Procedure: The animal model is based on the finding that sexually experienced rats that are administered an SSRI, a drug used to treat certain conditions such as depression, display a reduction in the number of non-contact penile erections. SSRI treatment is associated with sexual dysfunction in human subjects. In general, the animal model exposes sexually experienced male rats (Sprague-Dawley rats) to female rats in estrous in a novel testing arena that is not the regular housing environment. The number of non-contact penile erections is assayed over a specified test period, e.g., 30 minutes (Sukoff, Rizzo, et al., 2006, Society for Neurosci. Abstr. 559.4; U.S. Application Ser. No. 60/682,3379, filed May 19, 2005). In the experiments described herein, animals were generally treated either with 0.9% saline (vehicle) or a drug (i.e., a compound of the invention) in the vehicle.
# The ability of fluoxetine, an SSRI associated with sexual dysfunction in humans, to cause sexual dysfunction in the animal model was tested by examining a 10 mg/kg dose of fluoxetine or vehicle alone (0.9% saline), each administered intraperitoneally, once daily for 14 days, on the number of non-contact penile erections over a 30 minute trial period.
# To examine the time course of the effects of a drug that causes sexual dysfunction, rats that were handled and tested as described above were treated acutely: rats were treated with vehicle for 6 days, and on the test day (day 7) instead of vehicle, the animals received a single dose of fluoxetine in vehicle (i.p.). For a subchronic (7 day) study, fluoxetine was administered each day for 7 days and the animals were evaluated on test day 7. For the chronic 14 day study, fluoxetine was administered each day for 14 days and the animals were tested on day 14. Each fluoxetine dose was 10 mg/kg in vehicle and was delivered i.p. on each of the test days as described above. The testing session for each section of the study was begun immediately following compound administration and the behavior observed for 30 minutes immediately following the drug administration. […]
# [2] = tested on: male Sprague-Dawley rats; assay: In vivo microdialysis of frontal cortex 5-HT (enhancement of SSRI activity); set-up: species or system rat; conditions: acute fluoxetine alone, 30 mg/kg s.c.
# Procedure: The ability of the compounds of this invention to reduce time for onset of action of the representative SSRI fluoxetine was assessed using in vivo microdialysis. Using 2-3% halothane anesthesia (Fluothane; Zeneca, Cheshire, UK), male Sprague-Dawley rats (280-350 g; Charles River, Wilmington, Mass.) were secured in a stereotaxic frame with ear and incisor bars (David Kopf, Tujunga, Calif.) while a microdialysis guide cannula (CMA/12, CMA Microdialysis, Sweden) was directed above the dorsal lateral frontal cortex (A/P+3.2 mm, M/L−3.5 mm, D/L−1.3 mm). Coordinates were taken with a flat skull using the rat brain atlas of Paxinos and Watson (1986). […]
# For in vivo neurochemical experiments, a microdialysis probe (CMA/12; active membrane length 2 mm; OD 0.5 mm; 20 kD cut-off) was pre-washed with artificial CSF (aCSF; 125 mM NaCl, 3 mM KCl, 0.75 mM MgSO4 and 1.2 mM CaCl2, pH 7.4) according to the manufacturers specifications. […] Subsequent microdialysis samples were collected for 3 h post-injection and analyzed for 5-HT content by high performance liquid chromatography (HPLC). […] Subsequent sample values were expressed as a percent change from this preinjection baseline value (or % change from baseline). Neurochemical data, excluding preinjection values, were analyzed by a two-way analysis of variance (ANOVA) with repeated measures (time). […]
structure (smiles),measurement,setting,value
CNCCC(Oc1ccc(C(F)(F)F)cc1)c1ccccc1 (stereo not shown) [fluoxetine],sexual function (number of non-contact penile erections over 30 minutes),[1]; 10 mg/kg i.p. each day for 7 days (sub-chronic),significant increase in sexual dysfunction
same,sexual function (number of non-contact penile erections over 30 minutes),"[1]; 10 mg/kg i.p. once daily for 14 days (chronic), vs vehicle",significant increase in sexual dysfunction
same,sexual function (number of non-contact penile erections over 30 minutes),"[1]; 10 mg/kg i.p. once daily for 14 days (chronic), vs vehicle, listed as Fluoxetine",decrease in sexual function
same,frontal cortex serotonin levels,[2],did not increase serotonin levels
